Measurements published in patent US12055536B2, “Device for detection of cellular stress” (Trustees of Boston University, priority 2021, dated 2024).

Legend:
Assay type in all cases: cell-based, human
COV362 cells = test: Cell viability assay (dose-response); conditions: read-out: IC50 for cisplatin
Procedure: (§1) Cell viability was measured by MTS assay (Abcam, #ab197010) or by CellTiter-Glo™ assay (Promega, #G7570). Cells were seeded at 96-well plates at densities of 2000˜5000 cells per well overnight. Treatment was added to the cells at indicated concentrations for 72 h. Cell viability was measured by incubating with MTS reagent for 4 h and reading absorbance at 490 nm or incubating with CellTier-Glo™ reagent for 10 min and reading luminescence by a plate reader. Six replicates were used for each group.
(§2) In addition, isogenic PEO1/PEO4 cell lines derived from the same patient were studied, at the time of a platinum sensitive (PEO1) and platinum resistant-recurrence (PEO4).
(§3) Having shown decreased glucose-derived anabolism and increased fatty acid uptake in cisplatin-resistant ovarian cancer cells, whether this metabolic feature can be used for differentiation of cisplatin-resistant from cisplatin-sensitive cancer cells was explored. […] In Table 2 below, quantitation of glucose-d7 (G-d7), PA-d31, and OA-d34 are shown as area fraction of C-D signal out of total cellular area, in mean values.

COV362-cisR cells = test: Cell viability assay (dose-response); conditions: read-out: IC50 for cisplatin; COV362-cisR cells
Procedure: as §1, §2, §3

OVCAR5 cells [1] = test: Cell viability assay (dose-response); conditions: read-out: IC50 for cisplatin; OVCAR5 cells
Procedure: as §1, §2, §3

OVCAR5-cisR cells [2] = test: Cell viability assay (dose-response); conditions: read-out: IC50 for cisplatin; OVCAR5-CisR cells
Procedure: as §1, §2, §3

PEO1 cells [3] = test: Cell viability assay (dose-response); conditions: read-out: IC50 for cisplatin; PE01 cells
Procedure: as §1, §2, §3

PEO4 cells [4] = test: Cell viability assay (dose-response); conditions: read-out: IC50 for cisplatin; PE04 cells
Procedure: as §1, §2, §3

SKOV3-cisR cells = test: Cell viability assay (dose-response); conditions: read-out: IC50 for cisplatin; SKOV3-CisR cells
Procedure: as §1, §2, §3

[5] = test system: cisplatin-resistant OC cell lines; test: Cisplatin dose response, resistant versus parental cell lines; conditions: all the resistant cell lines versus parental
Source text: Ovarian cancer cell lines used in the methods include SKOV3, PEO1, OVCAR5, and COV362, and their cisplatin-resistant counterparts include SKOV3-cisR, PEO4, OVCAR5-cisR, and COV362-cisR. SKOV3 (Cat #: HTB-77), Mia Paca2 (Cat #: CRL-1420), MDA-MB-231 (Cat #: CRM-HTB-26) and A549 (Cat #: CCL-185) cells were purchased from the American Type Culture Collection (ATCC, Manassas, VA). PEO1 (Cat #: 10032308) and PEO4 (Cat #: 10032309) were purchased from Sigma Aldrich. OVCAR5 cells were a generous gift from Dr. Marcus Peter, Northwestern University, and COV362 cells were from Dr. Kenneth Nephew, Indiana University. All cell lines were authenticated and tested to be mycoplasma negative. Mia Paca2 and A549 are in the list of known misidentified cell lines maintained by the International Cell Line Authentication Committee, while their authentication was performed by ATCC through STR profiling. […] Surviving cells were allowed to recover for 3 to 4 weeks before receiving the next treatment. […]
Cell viability was measured by MTS assay (Abcam, #ab197010) or by CellTiter-Glo™ assay (Promega, #G7570). […] Cell viability was measured by incubating with MTS reagent for 4 h and reading absorbance at 490 nm or incubating with CellTier-Glo™ reagent for 10 min and reading luminescence by a plate reader. […]

PEO1 cells [6] = test: OCR and ECAR by Seahorse analysis; conditions: 13.2 μM cisplatin
Procedure: (§4) Cell lines were seeded in a Seahorse® XF96 Cell Culture Microplate (Agilent) at density of 6×10^4 (OVCAR5 pair) or 4×10^4 (PEO pair) per well. After incubation at 37° C. overnight for cell attachment, OCR, and extracellular acidification rate (ECAR) were measured through Seahorse® XFe96 Analyzer (Agilent). Measurement time was 30 seconds following 3 minutes mixture and 30 seconds waiting time. First three cycles were used for basal respiration measurement. […] Basal respiration, ATP production and maximal respiration reduction were calculated following the manufacturer's instructions.

PEO4 cells [7] = test: OCR and ECAR by Seahorse analysis; conditions: 13.2 μM cisplatin
Procedure: as §4

OVCAR5 cells [8] = test: Reactive oxidative species measurement (DCFDA); conditions: cisplatin 1.6 μM or 3.3 μM for 24 hours
Procedure: (§5) Cellular reactive oxidative species (ROS) was measured using a fluorescent probe, 2′,7′-Dichlorofluorescin diacetate (DCFDA) (Sigma Aldrich). […] DCFDA was added to the medium at final concentration of 10 μM and incubated for 15 min. After washing with PBS for 3 times, cells were immediately imaged under confocal microscope (Zeiss LSM 700 microscope) with 488 nm as the exciting source. Laser power was controlled at low setting to avoid fluorescence extinction. Images at ˜10 field of view were acquired for each sample.

OVCAR5-cisR cells [9] = test: Reactive oxidative species measurement (DCFDA); conditions: cisplatin 1.6 μM or 3.3 μM for 24 hours
Procedure: as §5

OVCAR5 cells [10] = test: Glucose uptake assay (2-NBDG); conditions: 3.3 μM cisplatin for 24 hours, 100 μM 2-NBDG for 2 hours
Procedure: Glucose uptake was measured using a fluorescent glucose analog 2-deoxy-2-[(7-nitro-2,1,3-benzoxadiazol-4-yl) amino]-D-glucose (2-NBDG) (Cayman Chemicals). Cells seeded in glass-bottom dishes were incubated with 100 μM 2-NBDG for 2 h. Fluorescent images were taken by confocal microscope (Zeiss® LSM 700 microscope) with 488 nm laser as excitation source. Images at ˜10 field of view were acquired for each sample.

A549 lung cancer = test: Cell viability assay (dose-response); conditions: 6.6 μM cisplatin
Procedure: as §1
(§6) Platinum is widely used across malignancies. […] These findings are broadly applicable to multiple types of cisplatin-resistant cancers. FIG. 8 illustrates the cellular metabolism switch from glycolysis to fatty acid oxidation with decreased glucose uptake, glycolysis and de novo lipogenesis while fatty acid uptake and oxidation are increased.

MD-MBA231 breast cancer = test: Cell viability assay (dose-response); conditions: 6.6 μM cisplatin
Procedure: as §1, §6

[11] = test system: MIA PaCa-2 pancreatic cancer; test: Cell viability assay (dose-response); conditions: 6.6 μM cisplatin
Procedure: as §1, §6

A549 cells = test: Isotope labeling and SRS imaging after cisplatin treatment; conditions: 13.2 μM cisplatin for 48 hours, then 100 μM PA-d31 or OA-d34 for 6 h
Procedure: (§7) For labeling with glucose-d7, media was replaced with glucose-free DMEM medium (Thermo Fisher Scientific, #11966025)+10% FBS+P/S supplemented with 25 mM glucose-d7 after seeding the cells in 35 mm glass-bottom dishes overnight. For labeling with FA or analogs, including PA-d31, OA-d34, and ODYA, FA or analogs were added to the culture media at final concentration of 100 μM and cells were treated for 6 h. For quantitative SRS imaging, cells on glass-bottom dishes were fixed with 10% neutral buffered formalin for 30 min and washed with PBS for 3 times. Hyperspectral SRS imaging was performed to the cells at Raman spectral region from 2100 to 2300 cm^−1.
as §6

MD-MBA231 cells = test: as above; conditions: 6.6 μM cisplatin for 24 hours, then 100 μM PA-d31 or OA-d34 for 6 h
Procedure: as §7, §6

MIA PaCa-2 cells = test: as above; conditions: 6.6 μM cisplatin for 24 hours, then 100 μM PA-d31 or OA-d34 for 6 h
Procedure: as §7, §6

N.N.[Cl][Pt][Cl] [cisplatin]
IC50 (COV362 cells): 7.19 µM
IC50 (COV362-cisR cells): 15.2 µM
IC50 (OVCAR5 cells [1]): 8.26 µM
IC50 (OVCAR5-cisR cells [2]): 17.4 µM
IC50 (PEO1 cells [3]): 4.72 µM
IC50 (PEO4 cells [4]): 13.6 µM
IC50 (SKOV3-cisR cells): 17.3 µM
increase of IC50 compared to parental counterpart cell lines [5]: 2-3 fold
ECAR rate (PEO1 cells [6]): promptly lowered
OCR (PEO1 cells [6]; before and 30 minutes after): slight increase of OCR
ECAR rate (PEO4 cells [7]): promptly lowered
OCR (PEO4 cells [7]; before and 30 minutes after): slight increase of OCR
ROS production (DCF fluorescent signal intensity) (OVCAR5 cells [8]): significant increase of ROS production
ROS production (DCF fluorescent signal intensity) (OVCAR5-cisR cells [9]): significant increase of ROS production
glucose uptake, measured by 2-NBDG (OVCAR5 cells [10]): reduced
cell death (A549 lung cancer): no significant cell death
cell death (MD-MBA231 breast cancer): no significant cell death
cell death [11]: no significant cell death
PA-d31 and OA-d34 uptake (C-D signal) (A549 cells): significant increase
PA-d31 and OA-d34 uptake (C-D signal) (MD-MBA231 cells): significant increase
uptake of PA-d31 and OA-d34 (C-D signal) (MIA PaCa-2 cells): significantly increased
